According to US20230286998A1, “SUCCINATE SALTS OF OCTAHYDROTHIENOQUINOLINE COMPOUND AND CRYSTALS THEREOF” (KISSEI PHARMACEUTICAL CO., LTD., priority 2020, published 2023):
Entries after “also recorded” stand apart in the source; their conditions may differ. Where a name gives a salt, the structure may show the parent alone.

Columns and labels:
Assay type in all cases: physicochemical
[1] = Stability Test 1: storage under an open condition at 60° C. (powder X-ray diffraction, HPLC related substances, appearance); details: 2 months; for Increased Amount of related substance: HPLC area normalization; for Change of Crystal form: powder X-ray diffraction
Experimental: (§1) The Form I crystal of the salt (A-1), the Form I crystal of the salt (A-2), the crystal of hydrochloric acid of the compound (B), the crystal of sebacate salt of the compound (B) and the crystal of adipate salt were stored under an open condition at 60° C., and the physical stability and the chemical stability of each crystal form were examined. The powder X-ray diffractions of the samples at the start of the specimens and 2 months later were measured in the same manner as in Test Example 1, and the physical stability of the crystal forms and the amounts of the related substances were measured using the following HPLC measurement conditions, thereby observing the chemical stability. At the same time, changes in appearance were also observed.
(§2) • Detector: Ultraviolet and visible absorptiometer/wavelength: 225 nm • Column: L-column2 ODS, 3 μm, 4.6×150 mm (manufactured by Chemicals Evaluation and Research Institute, Japan) • Column temperature: constant temperature around 30° C. • Flow rate: 1.0 mL/min • Mobile phase A: a solution (pH 6.9) in which potassium dihydrogen phosphate and dipotassium hydrogen phosphate are mixed in water so as to be each 10 mmol/L • Mobile phase B: acetonitrile • Mobile phase ratios • 0 to 25 minutes: mobile phase A/mobile phase B=79/21 • 25 to 45 minutes: mobile phase A/mobile phase B=79/21 to 25/75 (Gradient) • 45 to 50 minutes: mobile phase A/mobile phase B=25/75 • Injection volume: 5 μL • Sample cooler: 4° C. • Dissolution solvent: A mixed solution prepared by adding 20 parts of acetonitrile to 80 parts of a 20 mmol/L potassium dihydrogen phosphate aqueous solution adjusted to pH 3. • Sample solution: A liquid obtained by dissolving the specimen in the dissolution solvent and adjusting to about 1.0 mg/mL as the compound (B).
(§3) Excluding the peaks derived from the blank, the peak areas of the respective peaks were measured by an automatic integration method, and the values thereof were determined by an area normalization method.

[2] = Water adsorption and desorption test (IGA-Sorp); details: 25° C.
Experimental: The water adsorption and desorption behaviors of the Form I crystal of the salt (A-1), the crystal of hydrochloride salt of the compound (B) and the crystal of sebacate salt of the compound (B) were measured using IGA-Sorp (manufactured by HIDEN isochema) under the following conditions. The water adsorption and desorption isotherm of the Form I crystal of the salt (A-1) is shown in FIG. 11, and the water adsorption and desorption isotherm of hydrochloride salt of the compound (B) is shown in FIG. 12.
• Form I crystal of salt (A-1): 14.7 mg • Crystal of hydrochloride salt of compound (B): 10.4 mg • Crystal of sebacate salt of compound (B): 13.2 mg
Each specimen was placed in a water adsorption and desorption measurement device. The temperature and the humidity were set to 25° C./40% RH or 50% RH, and equilibration was conducted for 60 minutes or more to stabilize the mass.
The mass of each specimen subjected to mass equilibration was continuously measured while changing the relative humidity at every 5% RH in adsorption and desorption.
The mass % was expressed as a mass percentage of a mass change before and after adsorption (or desorption) based on a dry sample.

[3] = Stability Test 2: storage under an open condition at 40° C. and 75% relative humidity (powder X-ray diffraction, HPLC related substances, appearance); details: 2 months; for Increased Amount of related substance: HPLC area normalization; for Change of Crystal form: powder X-ray diffraction
Experimental: as §1, with “hydrochloride salt” for “hydrochloric acid”, “40° C. and 75% relative humidity,” for “60° C.,”
as §2, with “a 10” for “a 20”
as §3

[4] = listed as Forn I crystal of the salt (A-2), Monosuccinate Salt

SMILES | chemical stability (in words) [1] | Increased Amount of related substance [1] | Appearance ([1]; Sesquisuccinate Monohydrate) | Change of Crystal form ([1]; Sesquisuccinate Monohydrate) | Change of water amount at adsorption ([2]; 50-90% RH, based on a dry sample) [mass %] | Change of water amount at desorption ([2]; 90-0% RH, based on a dry sample) [mass %] | hygroscopicity (in words) ([2]; water adsorption and desorption) | chemical stability (in words) [3] | Increased Amount of related substance [3] | Appearance ([3]; Sesquisuccinate Monohydrate) | Change of Crystal form ([3]; Sesquisuccinate Monohydrate) | Appearance ([1]; Monosuccinate Salt) | Appearance [1, 4] | Change of Crystal form ([1]; Monosuccinate Salt) | Change of Crystal form [1, 4] | Appearance ([3]; Monosuccinate Salt) | Change of Crystal form ([3]; Monosuccinate Salt)
CCCN(C(=O)NCCN(C)C)C(=O)[C@@H]1C[C@@H]2Cc3c(sc(N)c3C#N)C[C@H]2N(C)C1 [Form I crystal of the salt (A-1), 1-{[(4aR,6R,8aR)-2-Amino-3-cyano-8-methyl-4,4a,5,6,7,8,8a,9-octahydrothieno[3,2-g]quinolin-6-yl]carbonyl}-3-[2-(dimethylamino)ethyl]-1-propylurea Sesquisuccinate Monohydrate] | chemically stable | No increase | almost no change in appearance; also recorded: White (A slight coloration | No change in crystal form | 0.3 | 0.8 | does not exhibit hygroscopicity | chemically stable | +0.01% | no change in appearance; also recorded: No change in white | No change in crystal form | – | – | – | – | – | –
CCCN(C(=O)NCCN(C)C)C(=O)[C@@H]1C[C@@H]2Cc3c(sc(N)c3C#N)C[C@H]2N(C)C1.O=C(O)CCC(=O)O [Form I crystal of the salt (A-2), 1-{[(4aR,6R,8aR)-2-Amino-3-cyano-8-methyl-4,4a,5,6,7,8,8a,9-octahydrothieno[3,2-g]quinolin-6-yl]carbonyl}-3-[2-(dimethylamino)ethyl]-1-propylurea Monosuccinate Salt] | chemically stable | −0.05% | – | – | – | – | – | chemically stable | No increase | – | – | almost no change in appearance | White (A slight coloration | No change in crystal form | No change | no change in appearance; also recorded: No change in white | No change in crystal form
